According to US10201530B2, “Treatment of BRCA1-defective cancer or resistant cancers” (City of Hope, priority 2014, dated 2019):

How the values were obtained:
[1] = test system: A2780-DDDP; experiment: Cytotoxicity, A2780-DDDP cells; assay type: cell-based, human; conditions: Homo sapiens, cisplatin-resistant ovarian cells, read-out: IC50, mean ± SEM
Description: (§1) All cell lines were acquired from the American Type Culture Collection (Manassas, Va., USA). Cells were maintained in RPMI 1640 medium (Mediatech) with 10% fetal bovine serum, 2 mM glutamine, and 100 U of penicillin and 100 μg of streptomycin per ml of medium (Sigma) at 37° C. in 5% CO2. To isolate HCC1437+BRCA1 cells, parental HCC1937 cells were transfected with pcDNA3.1 plasmid expressing full-length BRCA1 cDNA. Stable transfectant clones were selected and used for drug sensitivity assays. For stable transfection, cells at 30-40% confluence were incubated overnight with […] of plasmid DNA, using FUGENE® 6 transfectin reagent (Roche Molecular Biochemical, Monza, Italy) according to the manufacturer's instructions. Cells were then selected in puromycin (1 μg/ml) (Invitrogen life Technologies, La Jolla, Calif., USA.) After 20 to 30 days, viable puromycin-resistant colonies from HCC1937 transfections were expanded and screened. The clones that stably expressed […] and retained growth potential were assayed for BRCA1 expression by Western blot analysis. By Western blot analysis, we evaluated the restoration of BRCA1 expression in the puromycin-resistant cDNA/transfectant cells.
(§2) The MTT cytotoxicity assay was performed by incubating with MTT and monitoring the MTT formazan formed by viable cells with a microplate reader at a wavelength of 560 nm; the survival, ratio was determined using the formula: (Atest−Ablank)/(Acontrol−Ablank)×100%. The cytotoxicity was determined in 96-well plates using the semiautomatic fluorescence-based Digital Imaging Microscopy System (DIMSCAN). DIMSCAN uses digital imaging microscopy to quantify viable cells, which selectively accumulate FDA (fluorescein diacetate; Alfa Aesar, Ward Hill, Mass.). DIMSCAN is capable of measuring cytotoxicity over a 4 log dynamic range by quantifying total fluorescence per well (which is proportional to the number of viable cells) after elimination of the background fluorescence by digital thresholding and eosin Y (Mallinckrodt Baker, Center Valley, Pa.) quenching. Cells were seeded into 96-well plates in 100 μL of complete medium at 2,000 to 5,000 cells per well depending on cell line growth rate. After overnight incubation, test compound was added to each well at various concentrations in 50 μL of culture medium. After incubation with the drugs for 96 hours at 37° C., FDA (final concentration: […]) and eosin Y [final concentration: 0.1% (w/v)] were added to each well and the cells were incubated for an additional 20 minutes at 37° C. Total fluorescence per well was then measured using DIMSCAN, and the results were expressed as the ratio of the fluorescence in treated wells to the fluorescence in untreated wells (survival fraction).

[2] = test system: multiple human cancer cell lines; conditions: in most cases; cited from earlier work
[3] = test system: MCF-7; experiment: Cytotoxicity, MCF-7 cells; assay type: cell-based, human; conditions: Homo sapiens, MCF7; MCF-7, ER+ PR(+)
Description: as §1
The MTT cytotoxicity assay was performed by incubating with MTT and monitoring the MTT formazan formed by viable cells with a microplate reader at a wavelength of 560 nm; the survival, ratio was determined using the formula: (Atest−Ablank)/(Acontrol−Ablank)×100%. The cytotoxicity was determined in 96-well plates using the semiautomatic fluorescence-based Digital Imaging Microscopy System (DIMSCAN). DIMSCAN uses digital imaging microscopy to quantify viable cells, which selectively accumulate FDA (fluorescein diacetate; Alfa Aesar, Ward Hill, Mass.). DIMSCAN is capable of measuring cytotoxicity over a 4 log dynamic range by quantifying total fluorescence per well (which is proportional to the number of viable cells) after elimination of the background fluorescence by digital thresholding and eosin Y (Mallinckrodt Baker, Center Valley, Pa.) quenching. […]

[4] = test system: γ-H2AX, phospho-p53, phospho-ATM, foxo3, Rad51, BRCA1; experiment: DDR-associated proteins in A549 cells (Western blot, immunofluorescence); assay type: cell-based, human
Description: Immunofluorescence experiments were conducted as described previously (21,22). Specifically, A549 cells were grown on glass coverslips. After treatment with COH29 (1 or 10 μM) for 24 or 48 hours, cells were fixed with 4% paraformaldehyde for 10 min and permeabilizsd with TRITON™ X-100 (0.5%). The coverslips were washed with phosphate-buffered saline (PBS) and blocked with PBS-containing 2% bovine serum albumin (BSA), incubated with an Ab specific to FOXO3 or ATM-pS1981 or γ-H2AX or p53-pS15 (1:50-1:200 dilution), followed by Alexa 488-conjugated anti-rabbit or anti-mouse (1:200). Alexa 594-conjugated anti-goat (1:100) secondary Abs (Molecular Probes). Cells were incubated with 4′,6-diamidino-2-phenylindole (DAP1; Sigma) to stain the nuclei. Specific staining was visualized and images were captured with a Leica SF2 AOBS confocal laser scanning microscope. To measure foci-positive cells, we used ˜300 cells randomly captured by confocal microscopy. The percentages of considering foci-positive cells were calculated from cells containing at least five foci. Each error bar presented is the mean of standard deviation.
For subcellular fractionation, cells were trypsinized and washed with cold PBS solution twice. After centrifugation at 1,200 g for 5 min, cells were incubated in buffer (50 mM HEPES, pH 7.5, 150 mM NaCl, 1 mM EDTA) containing 0.2% NONIDET™ P-40 (NP-40), supplemented with protease inhibitors (5 μg/ml each of pepstatin, leupeptin, and aprotinin) and phosphatase inhibitors on ice for 5 min. Following centrifugation at 1,000 g for 5 min, the supernatant was collected (i.e., cytoplasmic fraction) and pellets were washed with the same buffer twice. The washed samples were extracted for 40 min on ice with fractionation buffer containing 0.5% NP-40 for nuclear fraction. All the samples were sonicated and clarified by centrifugation at 16,000 g for 15 min. Protein concentrations of all fractions were determined with Bio-Rad Protein Assay (Bio-Rad Laboratories, Hercules, Calif.). Immunoblotting was performed as described previously (21,22). Briefly, equal amounts of boiled protein samples were subjected to SDS-polyacrylamide gel electrophoresis (PAGE) and transferred onto nitrocellulose membranes (Bio-Rad Laboratories). Membranes were blocked for 1 hour in 3% BSA in Tris buffered saline containing 0.05% Tween 20 (TBST) and incubated for 1 hour with primary antibody (1:500 or 1:1000) diluted in TBST containing 1% BSA. After two washes with TBST, membranes were incubated for 1 hour with horseradish peroxidase-conjugated secondary Abs (1:3000 dilution) at room temperature. The immunoblots were visualized on film with the West-Q chemi-luminescence kit (GenDEPOT, Barker, Tex.).

[5] = test system: KB-Gem; experiment: Cytotoxicity, KB-Gem cells; assay type: cell-based, human; conditions: Homo sapiens, gemcitabine-resistant, read-out: IC50, mean ± SEM
Description: as §1, §2

[6] = test system: HCC1937+BRCA1 tumors; experiment: Orthotopic tumor explant model, HCC1937+BRCA1; assay type: in vivo; conditions: HCC1937+BRCA1 tumors in NSG mice, daily oral 400 mg/kg; p=0.1577
Description: Experiments in mice were conducted under a protocol approved by the IACUC of City of Hope. Because HCC1937 and HCC1937+BRCA1 cells from slow-growing tumors, they were implanted using MATRIGEL™ (Becton-Dickinson Biosciences). To establish tumors 4×10^6 cells in 200 μL serum-free medium containing 50% MATRIGEL™ were injected into the mammary fat pads around the inguinal area of a pair of 8 week old female NSG mice. Once the initial tenors reached 13 mm in diameter, they were dissected out minced into 3 mm pieces and implanted into the inguinal area of the mammary fat pads of the experimental mice Tumors were measured over a 28-day period, and for each time point, the student t-test was used to determine the statistical significance between daily gavage with 400 mg/kg COH29 in 30% solutol and corresponding vehicle control. The p value less than 0.05 (2 sides) was considered to indicate statistical significance

## O=C(Nc1nc(-c2ccc(O)c(O)c2)c(-c2ccccc2)s1)c1ccc(O)c(O)c1 [COH29]
[1]
  IC50: 6.47 ± 1.41 µM
[2]
  IC50: < 10 µM
[3]
  IC50: 17.6 ± 1.54 µM
[4]; A549 BRCA1 wild-type NSCLC cells, 48 h
  nuclear γ-H2AX, phospho-p53, phospho-ATM: induced accumulation of γ-H2AX, phospho-p53, and phospho-ATM in the nucleus
[4]; A549 cells
  nuclear foxo3 and p27: induction of foxo3 and its target protein p27 in the nucleus
[4]; A549 cells, 24 h
  BRCA1 protein level and Rad51 foci formation: suppressed the protein level of BRCA1 and Rad51 foci formation
[4]; nucleus of A549 cells
  Rad51 expression, Western analysis: downregulated in the nucleus
[5]
  IC50: 7.5 ± 0.29 µM
[6]
  tumor size compared to vehicle controls: not significantly smaller
